In article PMC11206519, “Multi-Endpoint Toxicological Assessment of Chrysin Loaded Oil-in-Water Emulsion System in Different Biological Models” (Nanomaterials, 2024):

Legend:
[1] = cited from earlier work
[2] = test system: D. melanogaster trans-heterozygous mwh+/+flr3 larvae of the ST cross; assay: SMART wing spot test, anti-mutagenicity, ST cross
Description: The somatic mutation and recombination test, or the wing spot test, using D. melanogaster was employed as an in vivo system to assess the mutagenicity and anti-mutagenicity of chrysin-ES. Two different crosses were conducted: (i) a standard cross (ST) and (ii) a high bioactivation cross (HB). The standard cross larvae were obtained from virgin female of flr3/TM3, Ser crossed with males of mwh/mwh, while the HB cross larvae expressing cytochrome P450 enzymes involved in xenobiotic biotransformation were obtained from virgin females of ORR/ORR; flr^3/In (3LR) TM3, ri p^psep l (3)89Aa bx^34e e Bd^s crossed with males of mwh/mwh. The flies were cultured at a constant temperature of 25 ± 1 °C and 60–70% RH at photoperiod 12:12 (light/dark). To evaluate the mutagenicity of chrysin and chrysin-ES, a hundred larva F1 progenies derived from the above crossing were fed with instant Drosophila medium (Formula 4-24®), Carolina, Burlington, NC, USA) containing chrysin or chrysin-ES (20–120 µg/mL). DI was used as a negative control, while 20 mM urethane (URE) was used as a positive control. The larvae were reared on each medium until pupation at 25 °C. After that, forty wings of surviving flies in each group were collected for mutant analysis. The mutant spots on the wings, including small single spots, large single spots, and twin spots, were counted. The statistical significance was calculated as previously described by Frei and Würgler.
Furthermore, the anti-mutagenicity of the samples was performed by a similar procedure as mentioned above.

[3] = test system: D. melanogaster trans-heterozygous mwh+/+flr3 larvae of the ST cross; assay: SMART wing spot test, mutagenicity, ST cross; format: in vivo, Drosophila melanogaster; details: for Statistical diagnosis, Small Single / Statistical diagnosis, Total Spots: vs DI
Description: The somatic mutation and recombination test, or the wing spot test, using D. melanogaster was employed as an in vivo system to assess the mutagenicity and anti-mutagenicity of chrysin-ES. Two different crosses were conducted: (i) a standard cross (ST) and (ii) a high bioactivation cross (HB) [18]. The standard cross larvae were obtained from virgin female of flr3/TM3, Ser crossed with males of mwh/mwh, while the HB cross larvae expressing cytochrome P450 enzymes involved in xenobiotic biotransformation were obtained from virgin females of ORR/ORR; flr^3/In (3LR) TM3, ri p^psep l (3)89Aa bx^34e e Bd^s crossed with males of mwh/mwh. The flies were cultured at a constant temperature of 25 ± 1 °C and 60–70% RH at photoperiod 12:12 (light/dark). To evaluate the mutagenicity of chrysin and chrysin-ES, a hundred larva F1 progenies derived from the above crossing were fed with instant Drosophila medium (Formula 4-24®), Carolina, Burlington, NC, USA) containing chrysin or chrysin-ES (20–120 µg/mL). DI was used as a negative control, while 20 mM urethane (URE) was used as a positive control. The larvae were reared on each medium until pupation at 25 °C. After that, forty wings of surviving flies in each group were collected for mutant analysis. The mutant spots on the wings, including small single spots, large single spots, and twin spots, were counted.

[4] = NMU (sodium nitrite 36 mM: methylurea 10 mM) + 20 μg/mL

O=c1cc(-c2ccccc2)oc2cc(O)cc(O)c12 [Chrysin, 5,7-dihydroxyflavone]
chrysin uptake eliminated in the feces [1]: 98% | inhibition of MMC mutagenicity ([2]; 40–80 µg/mL): approximately 30% | Inhibition (%) ([2]; EMS 5 mM + 20 μg/mL): 19% | Inhibitory Classification ([2]; EMS 5 mM + 20 μg/mL): Negligible | Mutant spots per individual (number of spots), Large Single ([2]; EMS 5 mM + 20 μg/mL): 1.28 (51) | Mutant spots per individual (number of spots), Small Single ([2]; EMS 5 mM + 20 μg/mL): 4.88 (195) | Mutant spots per individual (number of spots), Total ([2]; EMS 5 mM + 20 μg/mL): 6.35 (254) | Mutant spots per individual (number of spots), Twin ([2]; EMS 5 mM + 20 μg/mL): 0.20 (8) | Inhibition (%) ([2]; EMS 5 mM + 40 μg/mL): 46% | Inhibitory Classification ([2]; EMS 5 mM + 40 μg/mL): Moderate | Mutant spots per individual (number of spots), Large Single ([2]; EMS 5 mM + 40 μg/mL): 0.93 (37) | Mutant spots per individual (number of spots), Total ([2]; EMS 5 mM + 40 μg/mL): 4.20 (168) | Mutant spots per individual (number of spots), Twin ([2]; EMS 5 mM + 40 μg/mL): 0.35 (14) | Inhibition (%) ([2]; EMS 5 mM + 80 μg/mL): 49% | Inhibitory Classification ([2]; EMS 5 mM + 80 μg/mL): Moderate | Mutant spots per individual (number of spots), Large Single ([2]; EMS 5 mM + 80 μg/mL): 0.35 (14) | Mutant spots per individual (number of spots), Small Single ([2]; EMS 5 mM + 80 μg/mL): 3.50 (140) | Mutant spots per individual (number of spots), Total ([2]; EMS 5 mM + 80 μg/mL): 3.95 (158) | Mutant spots per individual (number of spots), Twin ([2]; EMS 5 mM + 80 μg/mL): 0.10 (4) | Inhibition (%) ([2]; EMS 5 mM + 120 μg/mL): 42% | Inhibitory Classification ([2]; EMS 5 mM + 120 μg/mL): Moderate | Mutant spots per individual (number of spots), Large Single ([2]; EMS 5 mM + 120 μg/mL): 0.88 (35) | Mutant spots per individual (number of spots), Small Single ([2]; EMS 5 mM + 120 μg/mL): 3.40 (136) | Mutant spots per individual (number of spots), Total ([2]; EMS 5 mM + 120 μg/mL): 4.55 (182) | Mutant spots per individual (number of spots), Twin ([2]; EMS 5 mM + 120 μg/mL): 0.28 (11) | Inhibition (%) ([2]; MMC 0.05 mM + 20 μg/mL): −1% | Mutant spots per individual (number of spots), Large Single ([2]; MMC 0.05 mM + 20 μg/mL): 1.45 (58) | Mutant spots per individual (number of spots), Small Single ([2]; MMC 0.05 mM + 20 μg/mL): 8.05 (322) | Mutant spots per individual (number of spots), Total ([2]; MMC 0.05 mM + 20 μg/mL): 9.85 (394) | Mutant spots per individual (number of spots), Twin ([2]; MMC 0.05 mM + 20 μg/mL): 0.35 (14) | Inhibition (%) ([2]; MMC 0.05 mM + 40 μg/mL): 30% | Inhibitory Classification ([2]; MMC 0.05 mM + 40 μg/mL): Weak | Mutant spots per individual (number of spots), Large Single ([2]; MMC 0.05 mM + 40 μg/mL): 1.35 (54) | Mutant spots per individual (number of spots), Small Single ([2]; MMC 0.05 mM + 40 μg/mL): 4.98 (199) | Mutant spots per individual (number of spots), Total ([2]; MMC 0.05 mM + 40 μg/mL): 6.85 (274) | Mutant spots per individual (number of spots), Twin ([2]; MMC 0.05 mM + 40 μg/mL): 0.53 (21) | Inhibition (%) ([2]; MMC 0.05 mM + 80 μg/mL): 30% | Inhibitory Classification ([2]; MMC 0.05 mM + 80 μg/mL): Weak | Mutant spots per individual (number of spots), Large Single ([2]; MMC 0.05 mM + 80 μg/mL): 1.63 (65) | Mutant spots per individual (number of spots), Small Single ([2]; MMC 0.05 mM + 80 μg/mL): 4.48 (179) | Mutant spots per individual (number of spots), Total ([2]; MMC 0.05 mM + 80 μg/mL): 6.83 (273) | Mutant spots per individual (number of spots), Twin ([2]; MMC 0.05 mM + 80 μg/mL): 0.73 (29) | Inhibition (%) ([2]; MMC 0.05 mM + 120 μg/mL): 77% | Inhibitory Classification ([2]; MMC 0.05 mM + 120 μg/mL): Strong | Mutant spots per individual (number of spots), Large Single ([2]; MMC 0.05 mM + 120 μg/mL): 0.58 (23) | Mutant spots per individual (number of spots), Small Single ([2]; MMC 0.05 mM + 120 μg/mL): 1.50 (60) | Mutant spots per individual (number of spots), Total ([2]; MMC 0.05 mM + 120 μg/mL): 2.25 (90) | Mutant spots per individual (number of spots), Twin ([2]; MMC 0.05 mM + 120 μg/mL): 0.18 (7) | Inhibition (%) ([2]; MMC 0.05 mM + 120 μg/mL, listed as chrysin): approximately 77% | Inhibition (%) [2, 4]: 89% | Inhibitory Classification [2, 4]: Strong | Mutant spots per individual (number of spots), Large Single [2, 4]: 0.03 (1) | Mutant spots per individual (number of spots), Small Single [2, 4]: 0.15 (6) | Mutant spots per individual (number of spots), Total [2, 4]: 0.23 (9) | Mutant spots per individual (number of spots), Twin [2, 4]: 0.05 (2) | Inhibition (%) ([2]; NMU + 40 μg/mL): 91% | Inhibitory Classification ([2]; NMU + 40 μg/mL): Strong | Mutant spots per individual (number of spots), Large Single ([2]; NMU + 40 μg/mL): 0 (0) | Mutant spots per individual (number of spots), Small Single ([2]; NMU + 40 μg/mL): 0.18 (7) | Mutant spots per individual (number of spots), Total ([2]; NMU + 40 μg/mL): 0.18 (7) | Mutant spots per individual (number of spots), Twin ([2]; NMU + 40 μg/mL): 0 (0) | Inhibition (%) ([2]; NMU + 80 μg/mL): 91% | Inhibitory Classification ([2]; NMU + 80 μg/mL): Strong | Mutant spots per individual (number of spots), Large Single ([2]; NMU + 80 μg/mL): 0 (0) | Mutant spots per individual (number of spots), Small Single ([2]; NMU + 80 μg/mL): 0.18 (7) | Mutant spots per individual (number of spots), Total ([2]; NMU + 80 μg/mL): 0.18 (7) | Mutant spots per individual (number of spots), Twin ([2]; NMU + 80 μg/mL): 0 (0) | Inhibition (%) ([2]; NMU + 120 μg/mL): 90% | Inhibitory Classification ([2]; NMU + 120 μg/mL): Strong | Mutant spots per individual (number of spots), Large Single ([2]; NMU + 120 μg/mL): 0.08 (3) | Mutant spots per individual (number of spots), Small Single ([2]; NMU + 120 μg/mL): 0.13 (5) | Mutant spots per individual (number of spots), Total ([2]; NMU + 120 μg/mL): 0.20 (8) | Mutant spots per individual (number of spots), Twin ([2]; NMU + 120 μg/mL): 0 (0) | Inhibition (%) ([2]; URE 20 mM + 20 μg/mL): 94% | Inhibitory Classification ([2]; URE 20 mM + 20 μg/mL): Strong | Mutant spots per individual (number of spots), Large Single ([2]; URE 20 mM + 20 μg/mL): 0 (0) | Mutant spots per individual (number of spots), Small Single ([2]; URE 20 mM + 20 μg/mL): 0.23 (9) | Mutant spots per individual (number of spots), Total ([2]; URE 20 mM + 20 μg/mL): 0.23 (9) | Mutant spots per individual (number of spots), Twin ([2]; URE 20 mM + 20 μg/mL): 0 (0) | Inhibition (%) ([2]; URE 20 mM + 40 μg/mL): 91% | Inhibitory Classification ([2]; URE 20 mM + 40 μg/mL): Strong | Mutant spots per individual (number of spots), Large Single ([2]; URE 20 mM + 40 μg/mL): 0.03 (1) | Mutant spots per individual (number of spots), Small Single ([2]; URE 20 mM + 40 μg/mL): 0.33 (13) | Mutant spots per individual (number of spots), Total ([2]; URE 20 mM + 40 μg/mL): 0.35 (14) | Mutant spots per individual (number of spots), Twin ([2]; URE 20 mM + 40 μg/mL): 0 (0) | Inhibition (%) ([2]; URE 20 mM + 80 μg/mL): 91% | Inhibitory Classification ([2]; URE 20 mM + 80 μg/mL): Strong | Mutant spots per individual (number of spots), Large Single ([2]; URE 20 mM + 80 μg/mL): 0 (0) | Mutant spots per individual (number of spots), Small Single ([2]; URE 20 mM + 80 μg/mL): 0.35 (14) | Mutant spots per individual (number of spots), Total ([2]; URE 20 mM + 80 μg/mL): 0.35 (14) | Mutant spots per individual (number of spots), Twin ([2]; URE 20 mM + 80 μg/mL): 0 (0) | Inhibition (%) ([2]; URE 20 mM + 120 μg/mL): 86% | Inhibitory Classification ([2]; URE 20 mM + 120 μg/mL): Strong | Mutant spots per individual (number of spots), Large Single ([2]; URE 20 mM + 120 μg/mL): 0.03 (1) | Mutant spots per individual (number of spots), Small Single ([2]; URE 20 mM + 120 μg/mL): 0.55 (22) | Mutant spots per individual (number of spots), Total ([2]; URE 20 mM + 120 μg/mL): 0.56 (23) | Mutant spots per individual (number of spots), Twin ([2]; URE 20 mM + 120 μg/mL): 0 (0) | Mutant spots per individual (number of spots), Large Single ([3]; 20 µg/mL): 0 (0) | Mutant spots per individual (number of spots), Small Single ([3]; 20 µg/mL): 0.38 (15) | Mutant spots per individual (number of spots), Total Spots ([3]; 20 µg/mL): 0.38 (15) | Mutant spots per individual (number of spots), Twin ([3]; 20 µg/mL): 0 (0) | Statistical diagnosis, Small Single ([3]; 20 µg/mL): − | Statistical diagnosis, Total Spots ([3]; 20 µg/mL): − | Mutant spots per individual (number of spots), Large Single ([3]; 40 µg/mL): 0.03 (1) | Mutant spots per individual (number of spots), Total Spots ([3]; 40 µg/mL): 0.38 (15) | Mutant spots per individual (number of spots), Twin ([3]; 40 µg/mL): 0 (0) | Statistical diagnosis, Small Single ([3]; 40 µg/mL): − | Statistical diagnosis, Total Spots ([3]; 40 µg/mL): − | Mutant spots per individual (number of spots), Large Single ([3]; 80 µg/mL): 0 (0) | Mutant spots per individual (number of spots), Small Single ([3]; 80 µg/mL): 0.58 (23) | Mutant spots per individual (number of spots), Total Spots ([3]; 80 µg/mL): 0.58 (23) | Mutant spots per individual (number of spots), Twin ([3]; 80 µg/mL): 0 (0) | Statistical diagnosis, Small Single ([3]; 80 µg/mL): − | Statistical diagnosis, Total Spots ([3]; 80 µg/mL): − | Mutant spots per individual (number of spots), Large Single ([3]; 120 µg/mL): 0.08 (3) | Mutant spots per individual (number of spots), Small Single ([3]; 120 µg/mL): 0.83 (33) | Mutant spots per individual (number of spots), Total Spots ([3]; 120 µg/mL): 0.90 (36) | Mutant spots per individual (number of spots), Twin ([3]; 120 µg/mL): 0 (0) | Statistical diagnosis, Small Single ([3]; 120 µg/mL): − | Statistical diagnosis, Total Spots ([3]; 120 µg/mL): − | mutagenicity in SMART ([3]; 20–120 μg/mL, ST and HB cross): non-mutagenic
